Source: the supplement of paper PMC11451515

Test system: P12-Ichikawa
Assay: cell viability relative to DMSO control; higher = less cytotoxic
Details: 48 h
Outline: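 Viability, reported as a per-plate percentage of DMSO wells with cell-free wells as background, came from CellTiter-Glo One luminescence. Reading took place after 48 h at 37°C. Before that, NOMO1 or SEM (500 cells/well) or P12-Ichikawa (1000 cells/well) leukemia cells, adapted for at least four passages in each medium, were seeded in 1536-well plates (5 μl) and pin-dosed with library compounds in DMSO, 47 μM to 0.79 nM over 11 threefold points.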

[1] = HPLM + 10% dialyzed FBS, 0.000781 µM
[2] = HPLM + 10% dialyzed FBS, 0.00234 µM
[3] = HPLM + 10% dialyzed FBS, 0.00702 µM
[4] = HPLM + 10% dialyzed FBS, 0.0211 µM
[5] = HPLM + 10% dialyzed FBS, 0.0632 µM
[6] = HPLM + 10% dialyzed FBS, 0.19 µM
[7] = HPLM + 10% dialyzed FBS, 0.569 µM
[8] = HPLM + 10% dialyzed FBS, 1.71 µM
[9] = HPLM + 10% dialyzed FBS, 5.12 µM
[10] = HPLM + 10% dialyzed FBS, 15.4 µM
[11] = HPLM + 10% dialyzed FBS, 46.1 µM
[12] = RPMI 5 mM glucose + 10% FBS, 0.000781 µM
[13] = RPMI 5 mM glucose + 10% FBS, 0.00234 µM
[14] = RPMI 5 mM glucose + 10% FBS, 0.00702 µM
[15] = RPMI 5 mM glucose + 10% FBS, 0.0211 µM
[16] = RPMI 5 mM glucose + 10% FBS, 0.0632 µM
[17] = RPMI 5 mM glucose + 10% FBS, 0.19 µM
[18] = RPMI 5 mM glucose + 10% FBS, 0.569 µM
[19] = RPMI 5 mM glucose + 10% FBS, 1.71 µM
[20] = RPMI 5 mM glucose + 10% FBS, 5.12 µM
[21] = RPMI 5 mM glucose + 10% FBS, 15.4 µM
[22] = RPMI 5 mM glucose + 10% FBS, 46.1 µM
[23] = RPMI 5 mM glucose + 10% dialyzed FBS, 0.000781 µM
[24] = RPMI 5 mM glucose + 10% dialyzed FBS, 0.00234 µM
[25] = RPMI 5 mM glucose + 10% dialyzed FBS, 0.00702 µM
[26] = RPMI 5 mM glucose + 10% dialyzed FBS, 0.0211 µM
[27] = RPMI 5 mM glucose + 10% dialyzed FBS, 0.0632 µM
[28] = RPMI 5 mM glucose + 10% dialyzed FBS, 0.19 µM
[29] = RPMI 5 mM glucose + 10% dialyzed FBS, 0.569 µM
[30] = RPMI 5 mM glucose + 10% dialyzed FBS, 1.71 µM
[31] = RPMI 5 mM glucose + 10% dialyzed FBS, 5.12 µM
[32] = RPMI 5 mM glucose + 10% dialyzed FBS, 15.4 µM
[33] = RPMI 5 mM glucose + 10% dialyzed FBS, 46.1 µM

| SMILES | cell viability [1] [%] | cell viability [2] [%] | cell viability [3] [%] | cell viability [4] [%] | cell viability [5] [%] | cell viability [6] [%] | cell viability [7] [%] | cell viability [8] [%] | cell viability [9] [%] | cell viability [10] [%] | cell viability [11] [%] | cell viability [12] [%] | cell viability [13] [%] | cell viability [14] [%] | cell viability [15] [%] | cell viability [16] [%] | cell viability [17] [%] | cell viability [18] [%] | cell viability [19] [%] | cell viability [20] [%] | cell viability [21] [%] | cell viability [22] [%] | cell viability [23] [%] | cell viability [24] [%] | cell viability [25] [%] | cell viability [26] [%] | cell viability [27] [%] | cell viability [28] [%] | cell viability [29] [%] | cell viability [30] [%] | cell viability [31] [%] | cell viability [32] [%] | cell viability [33] [%] |
| --- | --- | --- | --- | --- | --- | --- | --- | --- | --- | --- | --- | --- | --- | --- | --- | --- | --- | --- | --- | --- | --- | --- | --- | --- | --- | --- | --- | --- | --- | --- | --- | --- | --- |
| Cc1c[nH]c(/C=C2\C(=O)Nc3ccccc32)c1CCC(=O)O | 109 | 107 | 111 | 108 | 101 | 111 | 97.2 | 96.5 | 79.2 | 76.5 | 79.8 | 111 | 108 | 115 | 122 | 103 | 118 | 95.2 | 93.1 | 67.2 | 65.8 | 65.7 | 122 | 118 | 123 | 127 | 105 | 106 | 94.7 | 92.4 | 71.7 | 67.3 | 68.7 |
| CC1SC/2=C(C(O)=O)/C(=O)C3=CC(=C(C=C3N12)N4CCN(CC4)C\C5=C(C)\OC(=O)O5)F (configuration not stated) | 134 | 122 | 121 | 124 | 125 | 123 | 119 | 117 | 113 | 112 | 102 |  |  |  |  |  |  |  |  |  |  |  |  |  |  |  |  |  |  |  |  |  |  |
| O=C/1\C=C(/OC(=C1)/C2=C3SC4=C(SC3=CC=C2)C=CC=C4)N5CCOCC5 | 81.4 | 100 | 98.5 | 10.6 | 100 | 103 | 102 | 98.1 | 95.2 | 94.4 | 95 | 84.7 | 92.7 | 96.9 | 11.2 | 103 | 100 | 106 | 104 | 93.1 | 102 | 102 | 83.4 | 94.4 | 97.2 | 23.7 | 95.7 | 84.4 | 99.2 | 99.4 | 96 | 95.7 | 90.8 |
| CNC(=O)c1cccc(-c2ccc3c(N4CCOC[C@@H]4C)nc(N4CCOC[C@@H]4C)nc3n2)c1 | 104 | 106 | 95 | 92.4 | 87.1 | 80.2 | 78.8 | 67.7 | 65.6 | 64.8 | 62.4 | 93.7 | 98.6 | 86.7 | 75.4 | 67.2 | 57.2 | 55.7 | 54.3 | 54.9 | 48.5 | 44.5 | 98.4 | 102 | 89.5 | 80.6 | 72.8 | 61.8 | 64.6 | 58.1 | 49.8 | 44.7 | 39.9 |
| O=C1c2c(O)cccc2[C@H]([C@@H]2O[C@H](CO)[C@@H](O)[C@H](O)[C@H]2O)c2cc(CO)cc(O)c21 | 91 | 95.8 | 95.1 | 107 | 107 | 98.7 | 106 | 99.4 | 103 | 98.4 | 103 | 93.9 | 93.3 | 102 | 109 | 105 | 109 | 108 | 106 | 101 | 106 | 106 | 91 | 96.4 | 90.9 | 96.8 | 106 | 95.2 | 97 | 95.7 | 103 | 99.4 | 99 |
| C[C@H](NC(=O)C(=O)Nc1ccccc1C(C)(C)C)C(=O)N[C@@H](CC(=O)O)C(=O)COc1c(F)c(F)cc(F)c1F | 107 | 120 | 122 | 130 | 125 | 124 | 130 | 129 | 120 | 88.7 | 4.89 | 101 | 131 | 124 | 120 | 133 | 128 | 126 | 122 | 121 | 56.4 | 4.69 | 102 | 111 | 112 | 127 | 124 | 130 | 128 | 126 | 107 | 58.9 | 4.53 |
| COc1ccc(/C=C\c2cc(OC)c(OC)c(OC)c2)cc1O | 21 | 15 | 12.9 | 11.3 | 11.9 | 9.68 | 9.98 | 8.29 | 5.6 | 4.13 | 3.74 | 27.5 | 22 | 13.8 | 14.2 | 11.2 | 11.2 | 10.4 | 10.6 | 7.66 | 3.98 | 2.78 | 33.5 | 26.7 | 20.4 | 14.9 | 15.3 | 14.3 | 13.1 | 11 | 9.65 | 7.03 | 3.92 |
| Cc1ccc(-n2nc(C(C)(C)C)cc2NC(=O)Nc2ccc(OCCN3CCOCC3)c3ccccc23)cc1 | 106 | 112 | 113 | 115 | 111 | 117 | 119 | 126 | 114 | 109 | 102 | 106 | 107 | 103 | 97.7 | 113 | 112 | 113 | 117 | 112 | 88.7 | 85.2 | 105 | 100 | 112 | 121 | 109 | 116 | 125 | 126 | 116 | 97.5 | 104 |
